Laboratory results from patent US9695155B2, “Herbicidal substituted pyrimidinyloxy benzene compounds” (E. I. DU PONT DE NEMOURS AND COMPANY, priority 2013, dated 2017).

How the values were obtained:
ducksalad = assay: Test C flooded paddy test; assay type: in vivo, Heteranthera limosa; details: Flood, scale 0 to 100 (0 no effect, 100 complete control), 13 to 15 days
How it was run: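 In-water treatment: compound dosed into 3 cm flood over soil, water level unchanged throughout. Controls run alongside; visual assessment at day 13–15.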

giant foxtail [1] = assay: Test A postemergence; assay type: in vivo, Setaria faberii
How it was run: (§1)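 Visual injury scored 0–100 (100 = complete control) against untreated controls about 10 days after treatment in a greenhouse. Test chemicals, formulated with surfactant in non-phytotoxic solvent, were sprayed on soil preemergence or on 2-10 cm, one- to two-leaf plants postemergence.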

giant foxtail [2] = assay: Test A preemergence; assay type: in vivo, Setaria faberii; details: for Foxtail, Giant plant response rating: 500 g ai/ha
How it was run: as §1

large (Lg) crabgrass [3] = assay: Test A postemergence; assay type: in vivo, Digitaria sanguinalis
How it was run: as §1

morningglory [4] = assay: Test A postemergence; assay type: in vivo, Ipomoea spp.
How it was run: as §1

barnyardgrass [5] = assay: Test C flooded paddy test; assay type: in vivo, Echinochloa crus-galli; details: Flood, scale 0 to 100 (0 no effect, 100 complete control), 13 to 15 days
Text: (§2) At time of treatment, test pots were flooded to 3 cm above the soil surface, treated by application of test compounds directly to the paddy water, and then maintained at that water depth for the duration of the test. Treated plants and controls were maintained in a greenhouse for 13 to 15 days, after which time all species were compared to controls and visually evaluated. […] A dash (-) response means no test result.

velvetleaf [6] = assay: Test A preemergence; assay type: in vivo, Abutilon theophrasti; details: for Velvetleaf plant response rating: 500 g ai/ha
How it was run: as §1

Heteranthera limosa = assay: Test B flooded paddy test; assay type: in vivo; details: Flood, 250 g ai/ha; 0 to 100 scale where 0 is no effect and 100 is complete control
How it was run: (§3)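 Flooded to 3 cm at the 2-leaf stage, pots received compound through the paddy water and were kept at that depth under greenhouse conditions. After 13–15 days, effect was rated by eye relative to controls, 0 = none and 100 = complete control.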

sedge, umbrella [7] = assay: Test C flooded paddy test; assay type: in vivo, Cyperus difformis; details: Flood, scale 0 to 100 (0 no effect, 100 complete control), 13 to 15 days
Text: as §2

large (Lg) crabgrass [8] = assay: Test A preemergence; assay type: in vivo, Digitaria sanguinalis; details: for Crabgrass, Large plant response rating: 500 g ai/ha
How it was run: as §1

sedge, umbrella [9] = assay: Test B flooded paddy test; assay type: in vivo, Cyperus difformis; details: Flood, 250 g ai/ha; 0 to 100 scale where 0 is no effect and 100 is complete control
How it was run: as §3

rice [10] = assay: Test C flooded paddy test; assay type: in vivo, Oryza sativa; details: Flood, scale 0 to 100 (0 no effect, 100 complete control), 13 to 15 days
Text: as §2

wheat [11] = assay: Test A preemergence; assay type: in vivo, Triticum aestivum; details: for Wheat plant response rating: 500 g ai/ha
How it was run: as §1

morningglory [12] = assay: Test A preemergence; assay type: in vivo, Ipomoea spp.; details: for Morningglory plant response rating: 500 g ai/ha
How it was run: as §1

wheat [13] = assay: Test A postemergence; assay type: in vivo, Triticum aestivum
How it was run: as §1

corn [14] = assay: Test A postemergence; assay type: in vivo, Zea mays
How it was run: as §1

barnyardgrass [15] = assay: Test A preemergence; assay type: in vivo, Echinochloa crus-galli; details: for Barnyardgrass plant response rating: 500 g ai/ha
How it was run: as §1

pigweed [16] = assay: Test A preemergence; assay type: in vivo, Amaranthus retroflexus; details: for Pigweed plant response rating: 500 g ai/ha
How it was run: as §1

corn [17] = assay: Test A preemergence; assay type: in vivo, Zea mays; details: for Corn plant response rating: 500 g ai/ha
How it was run: as §1

rice [18] = assay: Test B flooded paddy test; assay type: in vivo, Oryza sativa; details: Flood, 250 g ai/ha; 0 to 100 scale where 0 is no effect and 100 is complete control
How it was run: as §3

velvetleaf [19] = assay: Test A postemergence; assay type: in vivo, Abutilon theophrasti
How it was run: as §1

pigweed [20] = assay: Test A postemergence; assay type: in vivo, Amaranthus retroflexus
How it was run: as §1

barnyardgrass [21] = assay: Test A postemergence; assay type: in vivo, Echinochloa crus-galli
How it was run: as §1

barnyardgrass [22] = assay: Test B flooded paddy test; assay type: in vivo, Echinochloa crus-galli; details: Flood, 250 g ai/ha; 0 to 100 scale where 0 is no effect and 100 is complete control
How it was run: as §3

[23] = 125 g ai/ha, 0 to 100 scale where 0 is no effect and 100 is complete control
[24] = 500 g ai/ha, 0 to 100 scale where 0 is no effect and 100 is complete control
[25] = 0 to 100 scale where 0 is no effect and 100 is complete control
[26] = 500 g ai/ha, 0 to 100 scale, 0 no effect, 100 complete control
[27] = 0 to 100 scale, 0 no effect, 100 complete control, approx. 10 days

C#Cc1cnn(-c2ccccc2Oc2ncc(Cl)cn2)c1 [Compound 188]
Plant response rating, Ducksalad (ducksalad; 31 g ai/ha): 0 | Plant response rating, Ducksalad (ducksalad; 62 g ai/ha): 0 | Plant response rating, Ducksalad (ducksalad; 125 g ai/ha): 40 | Plant response rating, Ducksalad (ducksalad; 250 g ai/ha): 60 | Foxtail, Giant plant response rating (giant foxtail [1]; [23]): 60 | Plant response rating, Foxtail, Giant (giant foxtail [1]; [24]): 90 | Foxtail, Giant plant response rating (0 to 100 scale) (giant foxtail [2]; 125 g ai/ha): 90 | Foxtail, Giant plant response rating (giant foxtail [2]; [25]): 100 | Crabgrass, Large plant response rating (large (Lg) crabgrass [3]; [23]): 50 | Plant response rating, Crabgrass, Large (large (Lg) crabgrass [3]; [24]): 80 | Morningglory plant response rating (morningglory [4]; [23]): 40 | Plant response rating, Morningglory (morningglory [4]; [24]): 100 | Plant response rating, Barnyardgrass (barnyardgrass [5]; 31 g ai/ha): 0 | Plant response rating, Barnyardgrass (barnyardgrass [5]; 62 g ai/ha): 0 | Plant response rating, Barnyardgrass (barnyardgrass [5]; 125 g ai/ha): 0 | Plant response rating, Barnyardgrass (barnyardgrass [5]; 250 g ai/ha): 0 | Velvetleaf plant response rating (0 to 100 scale) (velvetleaf [6]; 125 g ai/ha): 70 | Velvetleaf plant response rating (velvetleaf [6]; [25]): 100 | Plant response rating, Ducksalad (Heteranthera limosa): 90 | Plant response rating, Sedge, Umbrella (sedge, umbrella [7]; 31 g ai/ha): 0 | Plant response rating, Sedge, Umbrella (sedge, umbrella [7]; 62 g ai/ha): 0 | Plant response rating, Sedge, Umbrella (sedge, umbrella [7]; 125 g ai/ha): 50 | Plant response rating, Sedge, Umbrella (sedge, umbrella [7]; 250 g ai/ha): 75 | Crabgrass, Large plant response rating (0 to 100 scale) (large (Lg) crabgrass [8]; 125 g ai/ha): 90 | Crabgrass, Large plant response rating (large (Lg) crabgrass [8]; [25]): 100 | Plant response rating, Sedge, Umbrella (sedge, umbrella [9]): 90 | Plant response rating, Rice (rice [10]; 31 g ai/ha): 0 | Plant response rating, Rice (rice [10]; 62 g ai/ha): 0 | Plant response rating, Rice (rice [10]; 125 g ai/ha): 0 | Plant response rating, Rice (rice [10]; 250 g ai/ha): 0 | Wheat plant response rating (0 to 100 scale) (wheat [11]; 125 g ai/ha): 0 | Wheat plant response rating (wheat [11]; [25]): 30 | Morningglory plant response rating (0 to 100 scale) (morningglory [12]; 125 g ai/ha): 10 | Morningglory plant response rating (morningglory [12]; [25]): 90 | Wheat plant response rating (wheat [13]; [23]): 0 | Plant response rating, Wheat (wheat [13]; [24]): 30 | Corn plant response rating (corn [14]; [23]): 20 | Plant response rating, Corn (corn [14]; [24]): 50 | Barnyardgrass plant response rating (0 to 100 scale, 0 is no effect, 100 is complete control) (barnyardgrass [15]; 125 g ai/ha): 30 | Barnyardgrass plant response rating (barnyardgrass [15]; [25]): 100 | Pigweed plant response rating (0 to 100 scale) (pigweed [16]; 125 g ai/ha): 100 | Pigweed plant response rating (pigweed [16]; [25]): 100 | Corn plant response rating (0 to 100 scale) (corn [17]; 125 g ai/ha): 0 | Corn plant response rating (corn [17]; [25]): 20 | Plant response rating, Rice (rice [18]): 0 | Velvetleaf plant response rating (velvetleaf [19]; [23]): 90 | Plant response rating, Velvetleaf (velvetleaf [19]; [24]): 100 | Pigweed plant response rating (pigweed [20]; [23]): 100 | Plant response rating, Pigweed (pigweed [20]; [24]): 100 | Barnyardgrass plant response rating (barnyardgrass [21]; [23]): 30 | Plant response rating, Barnyardgrass (barnyardgrass [21]; [24]): 90 | Plant response rating, Barnyardgrass (barnyardgrass [22]): 30

Cc1ccc(Oc2ncc(Cl)cn2)c(-n2cc(Br)cn2)c1 [Compound 40]
Plant response rating, Ducksalad (ducksalad; 31 g ai/ha): 0 | Plant response rating, Ducksalad (ducksalad; 62 g ai/ha): 0 | Plant response rating, Ducksalad (ducksalad; 125 g ai/ha): 40 | Plant response rating, Ducksalad (ducksalad; 250 g ai/ha): 60 | Plant response rating, Foxtail, Giant (giant foxtail [1]; [23]): 10 | Plant response rating, Foxtail, Giant (giant foxtail [1]; [26]): 60 | Plant response rating, Foxtail, Giant (giant foxtail [2]; [23]): 10 | Foxtail, Giant plant response rating (giant foxtail [2]; [27]): 60 | Plant response rating, Crabgrass, Large (large (Lg) crabgrass [3]; [23]): 50 | Plant response rating, Crabgrass, Large (large (Lg) crabgrass [3]; [26]): 70 | Plant response rating, Morningglory (morningglory [4]; [23]): 70 | Plant response rating, Morningglory (morningglory [4]; [26]): 100 | Plant response rating, Barnyardgrass (barnyardgrass [5]; 31 g ai/ha): 0 | Plant response rating, Barnyardgrass (barnyardgrass [5]; 62 g ai/ha): 0 | Plant response rating, Barnyardgrass (barnyardgrass [5]; 125 g ai/ha): 15 | Plant response rating, Barnyardgrass (barnyardgrass [5]; 250 g ai/ha): 15 | Plant response rating, Velvetleaf (velvetleaf [6]; [23]): 50 | Velvetleaf plant response rating (velvetleaf [6]; [27]): 70 | Plant response rating, Ducksalad (Heteranthera limosa): 80 | Plant response rating, Sedge, Umbrella (sedge, umbrella [7]; 31 g ai/ha): 50 | Plant response rating, Sedge, Umbrella (sedge, umbrella [7]; 62 g ai/ha): 75 | Plant response rating, Sedge, Umbrella (sedge, umbrella [7]; 125 g ai/ha): 75 | Plant response rating, Sedge, Umbrella (sedge, umbrella [7]; 250 g ai/ha): 75 | Plant response rating, Crabgrass, Large (large (Lg) crabgrass [8]; [23]): 60 | Crabgrass, Large plant response rating (large (Lg) crabgrass [8]; [27]): 80 | Plant response rating, Sedge, Umbrella (sedge, umbrella [9]): 80 | Plant response rating, Rice (rice [10]; 31 g ai/ha): 0 | Plant response rating, Rice (rice [10]; 62 g ai/ha): 0 | Plant response rating, Rice (rice [10]; 125 g ai/ha): 0 | Plant response rating, Rice (rice [10]; 250 g ai/ha): 0 | Plant response rating, Wheat (wheat [11]; [23]): 0 | Wheat plant response rating (wheat [11]; [27]): 0 | Plant response rating, Morningglory (morningglory [12]; [23]): 0 | Morningglory plant response rating (morningglory [12]; [27]): 0 | Plant response rating, Wheat (wheat [13]; [23]): 0 | Plant response rating, Wheat (wheat [13]; [26]): 0 | Plant response rating, Corn (corn [14]; [23]): 0 | Plant response rating, Corn (corn [14]; [26]): 0 | Plant response rating, Barnyardgrass (barnyardgrass [15]; [23]): 40 | Barnyardgrass plant response rating (barnyardgrass [15]; [27]): 50 | Plant response rating, Pigweed (pigweed [16]; [23]): 0 | Pigweed plant response rating (pigweed [16]; [27]): 50 | Plant response rating, Corn (corn [17]; [23]): 0 | Corn plant response rating (corn [17]; [27]): 0 | Plant response rating, Rice (rice [18]): 15 | Plant response rating, Velvetleaf (velvetleaf [19]; [23]): 100 | Plant response rating, Velvetleaf (velvetleaf [19]; [26]): 100 | Plant response rating, Pigweed (pigweed [20]; [23]): 40 | Plant response rating, Pigweed (pigweed [20]; [26]): 60 | Plant response rating, Barnyardgrass (barnyardgrass [21]; [23]): 0 | Plant response rating, Barnyardgrass (barnyardgrass [21]; [26]): 20 | Plant response rating, Barnyardgrass (barnyardgrass [22]): 20
